In patent publication US20230190713A1 (priority 2020, published 2023):
Several values for one entry are separate records, joined by “and”; a condition that tells them apart may be missing. Identical values can stand only once. Entries after “also recorded” stand apart in the source; their conditions may differ. Like-named read-outs stand apart in the source and are kept apart here.

Experiments:
[1] = system: 2019-nCoV (2019BetaCoV/Wuhan/WIV04/2019 strain); test: microbe, parasite or virus in culture; assay type: cell-based
[2] = system: avian influenza virus A/GuangZhou/99 (H9N2); test: organism not typed; assay type: cell-based
[3] = system: 2019-nCoV, Ebola virus, and avian influenza virus A/GuangZhou/99 (H9N2); test: organism not typed; assay type: cell-based; details: read-out: EC50 values (level reached)
[4] = system: 2019-nCoV; parameters: species or system Syrian hamster; details: hamster, in vivo
[5] = in vitro; details: Syrian hamster
[6] = system: 2019-nCoV; parameters: species or system K18-hACE male mice; details: mouse, in vivo
[7] = system: 2019-nCoV, Ebola virus, avian influenza virus A/GuangZhou/99 (H9N2); assay type: cell-based
[8] = system: Ebola virus replicon; test: microbe, parasite or virus in culture; assay type: cell-based; details: Zaire ebolavirus
[9] = system: A/WSN/33(H1N1) virus; parameters: species or system BALB/c female mice; details: mouse, in vivo
[10] = Severe acute respiratory syndrome coronavirus 2, Vero C1008, 48 h
[11] = Severe acute respiratory syndrome coronavirus 2, Vero C1008, read-out: 2019-nCoV EC50 (µM)
[12] = Severe acute respiratory syndrome coronavirus 2, Vero C1008, read-out: concentration at which replication efficiency of 2019-nCoV is inhibited by 50%
[13] = MDCK, read-out: A/GuangZhou/99(H9N2) EC50 (µM)
[14] = unidentified influenza virus, H9N2, MDCK, read-out: concentration at which replication efficiency of avian influenza virus H9N2 is inhibited by 50%
[15] = BSR-T7/5, read-out: Ebola virus EC50 (µM)
[16] = BSR-T7/5, read-out: concentration at which replication efficiency of Ebola replicon is inhibited by 50%

## CN(/N=C/c1ccccc1C(=O)O)c1nc(-c2ccccc2Cl)cs1 [Compound 1]
[1]; [10]
  EC50: 0.017 µM
[1]; [11]
  EC50: 0.017 µM
[1]; [12]
  EC50: 0.017 µM
[2]; MDCK
  EC50: 0.021 µM
[2]; [13]
  EC50: 0.021 µM
[2]; [14]
  EC50: 0.02 µM
[3]
  EC50: ~10 nM
[4]
  reduction of viral load in lung tissue: more than 100 fold
  viral infection-induced weight loss: significantly slowed
[5]
  CC50: 85800 nM
[6]
  weight loss and death caused by viral infection: did not significantly improve; also recorded: could not significantly improve
[7]
  therapeutic effect in combination with other antiviral drugs: better therapeutic effects
[8]; BSR-T7/5, 24 h
  EC50: 0.018 µM
[8]; [15]
  EC50: 0.018 µM
[8]; [16]
  EC50: 0.018 µM

## CCN(/N=C/c1ccccc1C(=O)O)c1nc(-c2ccccc2Cl)cs1 [Compound 2]
[1]; [11]
  EC50: 0.16 µM
[2]; [13]
  EC50: 0.28 µM
[8]; [15]
  EC50: 0.13 µM

## CCCN(/N=C/c1ccccc1C(=O)O)c1nc(-c2ccccc2Cl)cs1 [Compound 3]
[1]; [11]
  EC50: 2.35 µM
[2]; [13]
  EC50: 2.38 µM
[8]; [15]
  EC50: 5.42 µM

## CC(C)N(/N=C/c1ccccc1C(=O)O)c1nc(-c2ccccc2Cl)cs1 [Compound 4]
[1]; [11]
  EC50: 10.2 µM
[2]; [13]
  EC50: 8.37 µM
[8]; [15]
  EC50: 5.35 µM

## CCC(C)N(/N=C/c1ccccc1C(=O)O)c1nc(-c2ccccc2Cl)cs1 (stereo not drawn) [Compound 5]
[1]; [11]
  EC50: > 100 µM
[2]; [13]
  EC50: 45.4 µM
[8]; [15]
  EC50: 89 µM

## CCCC(C)N(/N=C/c1ccccc1C(=O)O)c1nc(-c2ccccc2Cl)cs1 (stereo not drawn) [Compound 6]
[1]; [11]
  EC50: > 100 µM
[2]; [13]
  EC50: 22.2 µM
[8]; [15]
  EC50: 97 µM

## O=C(O)c1cc(C(F)(F)F)ccc1/C=N/Nc1nc(-c2ccccc2Cl)cs1 [Compound 8-1]
[1]; [11]
  EC50: 5.25 µM
[2]; [13]
  EC50: > 100 µM
[8]; [15]
  EC50: 1.14 µM

## CN(/N=C/c1ccc(C(F)(F)F)cc1C(=O)O)c1nc(-c2ccccc2Cl)cs1 [Compound 8]
[1]; [11]
  EC50: > 100 µM
[2]; [13]
  EC50: > 100 µM
[8]; [15]
  EC50: 49 µM

## Cc1ccc(/C=N/Nc2nc(-c3ccccc3Cl)cs2)c(C(=O)O)c1 [Compound 9-1]
[1]; [11]
  EC50: 0.07 µM
[2]; [13]
  EC50: 0.33 µM
[8]; [15]
  EC50: 0.89 µM

## Cc1ccc(/C=N/N(C)c2nc(-c3ccccc3Cl)cs2)c(C(=O)O)c1 [Compound 9]
[1]; [11]
  EC50: 0.29 µM
[2]; [13]
  EC50: 1.37 µM
[8]; [15]
  EC50: 2.26 µM

## O=C(O)c1cc(F)ccc1/C=N/Nc1nc(-c2ccccc2Cl)cs1 [Compound 10-1]
[1]; [11]
  EC50: 0.11 µM
[2]; [13]
  EC50: 0.33 µM
[8]; [15]
  EC50: 0.97 µM

## CN(/N=C/c1ccc(F)cc1C(=O)O)c1nc(-c2ccccc2Cl)cs1 [Compound 10]
[1]; [11]
  EC50: 0.1 µM
[2]; [13]
  EC50: 3.2 µM
[8]; [15]
  EC50: 0.32 µM

## Cc1ccc(/C=N/N(C)c2nc(-c3ccccc3)c(C)s2)c(C(=O)O)c1 [Compound 11]
[1]; [11]
  EC50: > 100 µM

## Cc1sc(N/N=C/c2ccccc2C(=O)O)nc1-c1ccccc1 [Compound 12-1]
[1]; [11]
  EC50: 0.52 µM

## Cc1sc(N(C)/N=C/c2ccccc2C(=O)O)nc1-c1ccccc1 [Compound 12]
[1]; [11]
  EC50: 0.35 µM

## Cc1sc(N(C)/N=C/c2ccccc2C(=O)O)nc1-c1ccccc1Cl [Compound 13]
[1]; [11]
  EC50: > 100 µM
[2]; [13]
  EC50: 8.27 µM

## O=C(O)c1ccccc1/C=N/Nc1nc(-c2ccccc2Cl)cs1 [Compound 16]
[1]; [10]
  EC50: 1.56 µM
[1]; [11]
  EC50: 1.56 µM
[1]; [12]
  EC50: 1.55 µM
[2]; MDCK
  EC50: 13.2 µM
[2]; [13]
  EC50: 13.2 µM
[2]; [14]
  EC50: 13.2 µM
[3]
  EC50: ~10 nM
[7]
  therapeutic effect in combination with other antiviral drugs: better therapeutic effects
[9]
  mice treated (survival): 50%-100% and 50% and 100%
[8]; BSR-T7/5, 24 h
  EC50: 11.4 µM
[8]; [15]
  EC50: 11.4 µM
[8]; [16]
  EC50: 15 µM

## O=C(O)c1cc(F)c(F)cc1/C=N/Nc1nc(-c2ccccc2Cl)cs1 [Compound 23-1]
[1]; [11]
  EC50: 5.44 µM

## O=C(O)c1ccccc1/C=N/Nc1nc(-c2cc(Cl)ccc2Cl)cs1 [Compound 55]
[1]; [11]
  EC50: 1.02 µM
[2]; [13]
  EC50: 4.06 µM
[8]; [15]
  EC50: 5.4 µM
